# Legend:
# human PPARalpha = target: T1, human PPARalpha (Homo sapiens, UniProt Q07869); test: Cellular PPARalpha assay (stably transfected HEK luciferase reporter cell line); format: cell-based; conditions: PPARalpha reporter cell line (HEK, GR-GAL4-humanPPARalpha-LBD), 24 h incubation
# T1 construct: human PPARalpha receptor (amino acids S167-Y468); expressed in transfected cells; host or cells: HEK cells, stably transfected (pcDNA3 construct)
# T1 sequence (Q07869 167-468): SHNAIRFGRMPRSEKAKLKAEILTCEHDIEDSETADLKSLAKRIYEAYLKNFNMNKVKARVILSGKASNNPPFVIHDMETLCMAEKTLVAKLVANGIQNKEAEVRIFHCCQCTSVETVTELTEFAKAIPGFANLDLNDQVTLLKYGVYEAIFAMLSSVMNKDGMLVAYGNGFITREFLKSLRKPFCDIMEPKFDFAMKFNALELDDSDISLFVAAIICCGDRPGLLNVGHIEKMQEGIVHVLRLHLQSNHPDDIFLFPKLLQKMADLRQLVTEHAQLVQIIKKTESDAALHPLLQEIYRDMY
# Experimental: Determination of EC50 Values of PPAR Agonists in the Cellular PPARalpha Assay
# The potency of substances which bind to human PPARalpha and activate it in an agonistic manner is analyzed using a stably transfected HEK cell line (HEK=human embryonic kidney) which is referred to here as PPARalpha reporter cell line. It contains two genetic elements, a luciferase reporter element (pdeltaM-GAL4-Luc-Zeo) and a PPARalpha fusion protein (GR-GAL4-humanPPARalpha-LBD) which mediates expression of the luciferase reporter element depending on a PPARalpha ligand. The stably and constitutively expressed fusion protein GR-GAL4-humanPPARalpha-LBD binds in the cell nucleus of the PPARalpha reporter cell line via the GAL4 protein portion to the GAL4 DNA binding motifs 5′-upstream of the luciferase reporter element which is stably integrated in the genome of the cell line. There is only little expression of the luciferase reporter gene without addition of a PPARalpha ligand if fatty acid-depleted fetal calf serum (cs-FCS) is used in the assay. PPARalpha ligands bind and activate the PPARalpha fusion protein and thereby bring about expression of the luciferase reporter gene. The luciferase which is formed can be detected by means of chemiluminescence via an appropriate substrate.
# The PPARalpha reporter cell line was prepared in two steps. Firstly, the luciferase reporter element was constructed and stably transfected into HEK cells. For this purpose, five binding sites of the yeast transcription factor GAL4 (in each case 5′-CGGAGTACTGTCCTCCGAG-3′) were cloned in 5′-upstream of a 68 bp-long minimal MMTV promoter (Genbank Accession #V01175). The minimal MMTV promoter section contains a CCAAT box and a TATA element in order to enable efficient transcription by RNA polymerase II. The cloning and sequencing of the GAL4-MMTV construct took place in analogy to the description of Sambrook J. et. al. (Molecular cloning, Cold Spring Harbor Laboratory Press, 1989). Then the complete Photinus pyralis luciferase gene (Genbank Accession #M15077) was cloned in 3′-downstream of the GAL4-MMTV element. After sequencing, the luciferase reporter element consisting of five GAL4 binding sites, MMTV promoter and luciferase gene was subcloned into a plasmid which confers zeozin resistance in order to obtain the plasmid pdeltaM-GAL4-Luc-Zeo. This vector was transfected into HEK cells in accordance with the statements in Ausubel, F. M. et al. (Current protocols in molecular biology, Vol. 1-3, John Wiley & Sons, Inc., 1995).
# In a second step, the PPARalpha fusion protein (GR-GAL4-humanPPARalpha-LBD) was introduced into the stable cell clone described. For this purpose, initially the cDNA coding for the N-terminal 76 amino acids of the glucocorticoid receptor (Genbank Accession #P04150) was linked to the cDNA section coding for amino acids 1-147 of the yeast transcription factor GAL4 (Genbank Accession #P04386). The cDNA of the ligand-binding domain of the human PPARalpha receptor (amino acids S167-Y468; Genbank Accession #S74349) was cloned in at the 3′ end of this GR-GAL4 construct. The fusion construct prepared in this way (GR-GAL4-humanPPARalpha-LBD) was subcloned into the plasmid pcDNA3 (from Invitrogen) in order to enable constitutive expression therein by the cytomegalovirus promoter. This plasmid was linearized with a restriction endonuclease and stably transfected into the previously described cell clone containing the luciferase reporter element. The finished PPARalpha reporter cell line which contains a luciferase reporter element and constitutively expresses the PPARalpha fusion protein (GR-GAL4-humanPPARalpha-LBD) was isolated by selection with zeozin (0.5 mg/ml) and G418 (0.5 mg/ml).
# The activity of PPARalpha agonists is determined in a 3-day assay which is described below: […]
# human PPARgamma = target: T2, human PPARgamma (Homo sapiens, UniProt P37231); test: Cellular PPARgamma assay (transiently transfected HEK cells, luciferase reporter); format: cell-based; conditions: HEK cells transiently transfected with GAL4-humanPPARgammaLBD, 48 h incubation, firefly/Renilla luciferase ratio
# T2 construct: human PPARgamma receptor (amino acids I152-Y475); expressed in transfected cells; host or cells: HEK cells, transiently transfected with pcDNA3-GAL4-humanPPARgammaLBD
# T2 sequence (P37231 182-505 limits assumed): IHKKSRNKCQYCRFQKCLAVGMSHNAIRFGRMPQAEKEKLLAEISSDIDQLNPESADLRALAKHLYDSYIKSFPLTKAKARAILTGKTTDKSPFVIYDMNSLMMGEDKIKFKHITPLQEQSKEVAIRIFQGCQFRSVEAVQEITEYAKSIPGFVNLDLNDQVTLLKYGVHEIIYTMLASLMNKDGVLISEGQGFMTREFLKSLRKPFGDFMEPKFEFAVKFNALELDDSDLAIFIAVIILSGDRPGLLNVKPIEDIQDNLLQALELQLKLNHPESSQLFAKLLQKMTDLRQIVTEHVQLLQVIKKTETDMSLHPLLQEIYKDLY
# Excerpt: Determination of EC50 Values of PPAR Agonists in the Cellular PPARgamma Assay
# A transient transfection system is employed to determine the cellular PPARgamma activity of PPAR agonists. It is based on the use of a luciferase reporter plasmid (pGL3basic-5xGAL4-TK) and of a PPARgamma expression plasmid (pcDNA3-GAL4-humanPPARgammaLBD). Both plasmids are transiently transfected into human embryonic kidney cells (HEK cells). There is then expression in these cells of the fusion protein GAL4-humanPPARgammaLBD which binds to the GAL4 binding sites of the reporter plasmid. In the presence of a PPARgamma-active ligand, the activated fusion protein GAL4-humanPPARgammaLBD induces expression of the luciferase reporter gene, which can be detected in the form of a chemiluminescence signal after addition of a luciferase substrate. As a difference from the stably transfected PPARalpha reporter cell line, in the cellular PPARgamma assay the two components (luciferase reporter plasmid and PPARgamma expression plasmid) are transiently transfected into HEK cells because stable and permanent expression of the PPARgamma fusion protein is cytotoxic.
# The luciferase reporter plasmid pGL3basic-5xGAL4-TK is based on the vector pGL3basic from Promega. The reporter plasmid is prepared by cloning five binding sites of the yeast transcription factor GAL4 (each binding site with the sequence 5′-CTCGGAGGACAGTACTCCG-3′), together with a 160 bp-long thymidine kinase promoter section (Genbank Accession #AF027128) 5′-upstream into pGL3basic. 3′-downstream of the thymidine kinase promoter is the complete luciferase gene from Photinus pyralis (Genbank Accession #M15077), which is already a constituent of the plasmid pGL3basic used. The cloning and sequencing of the reporter plasmid pGL3basic-5xGAL4-TK took place in analogy to the description in Sambrook J. et. al. (Molecular cloning, Cold Spring Harbor Laboratory Press, 1989).
# The PPARgamma expression plasmid pcDNA3-GAL4-humanPPARgammaLBD was prepared by first cloning the cDNA coding for amino acids 1-147 of the yeast transcription factor GAL4 (Genbank Accession #P04386) into the plasmid pcDNA3 (from Invitrogen) 3′-downstream of the cytomegalovirus promoter. Subsequently, the cDNA of the ligand-binding domain (LBD) of the human PPARgamma receptor (amino acids I152-Y475; Accession #g1480099) 3′-downstream of the GAL4 DNA binding domain was cloned. Cloning and sequencing of the PPARgamma expression plasmid pcDNA3-GAL4-humanPPARgammaLBD again took place in analogy to the description in Sambrook J. et. al. (Molecular cloning, Cold Spring Harbor Laboratory Press, 1989). Besides the luciferase reporter plasmid pGL3basic-5xGAL4-TK and the PPARgamma expression plasmid pcDNA3-GAL4-humanPPARgammaLBD, also used for the cellular PPARgamma assay are the reference plasmid pRL-CMV (from Promega) and the plasmid pBluescript SK(+) from Stratagene. All four plasmids were prepared using a plasmid preparation kit from Qiagen, which ensured a plasmid quality with a minimal endotoxin content, before transfection into HEK cells.
# The activity of PPARgamma agonists is determined in a 4-day assay which is described below. Before the transfection, HEK cells are cultivated in DMEM medium (#41965-039, Invitrogen) which is mixed with the following additions: 10% FCS (#16000-044, Invitrogen), 1% penicillin-streptomycin solution (#15140-122, Invitrogen) and 2 mM L-glutamine (#25030-024, Invitrogen).
# A transfection mixture (solution A) which contains all four plasmids previously described in a DMEM medium, is prepared. The following amounts are used to make up 3 ml of solution A for each 96-well microtiter plate for an assay: 2622 μl of antibiotic- and serum-free DMEM medium (#41965-039, Invitrogen), 100 μl of reference plasmid pRL-CMV (1 ng/μl), 100 μl of luciferase reporter plasmid pGL3basic-5xGAL4-TK (10 ng/μl), 100 μl of PPARgamma expression plasmid pcDNA3-GAL4-humanPPARgammaLBD (100 ng/μl) and 78 μl of plasmid pBluescript SK(+) (500 ng/μl). […]
SMILES,EC50 (human PPARalpha) [nM],EC50 (human PPARgamma) [nM]
"Cc1cccc(COCCCCOCc2nc(-c3ccc(-c4ccccc4)cc3)oc2C)c1C(=O)O [Example 33, 2-Methyl-6-[4-(2-p-biphenyl-5-methyloxazol-4-ylmethoxy)butoxymethyl]benzoic acid]",21,14
"Cc1cccc(COCCCCOCc2nc(-c3cccc(C(F)(F)F)c3)oc2C(C)C)c1C(=O)O [Example 32, 2-{4-[5-Isopropyl-2-(3-trifluoromethylphenyl)oxazol-4-ylmethoxy]butoxymethyl}-6-methylbenzoic acid]",1.6,72
"COc1cccc(-c2nc(COCCCCOCc3cccc(C)c3C(=O)O)c(C)o2)c1 [Example 31, 2-Methyl-6-{4-[2-(3-methoxyphenyl)-5-methyloxazol-4-ylmethoxy]butoxymethyl}-benzoic acid]",1.4,17
"COc1ccc(-c2nc(COCCCOCc3cccc(C)c3C(=O)O)c(C)o2)cc1OC [Example 11, 2-Methyl-6-{3-[5-methyl-2-(3,4-dimethoxyphenyl)oxazol-4-ylmethoxy]propoxymethyl}-benzoic acid]",8.7,630
"Cc1cccc(COCCCOCc2nc(-c3ccc(-c4ccccc4)cc3)oc2C)c1C(=O)O [Example 3, 2-Methyl-6-[3-(5-methyl-2-p-biphenyloxazol-4-ylmethoxy)propoxymethyl]benzoic acid]",4.2,150

# More lines, in order of falling EC50 (human PPARalpha), values ahead:
EC50 (human PPARalpha) [nM],EC50 (human PPARgamma) [nM],SMILES
88,1800,"Cc1ccc(-c2nc(COCCCOCc3cccc(C)c3C(=O)O)c(-c3ccccc3)o2)cc1 [Example 23, 2-Methyl-6-[3-(5-phenyl-2-p-tolyloxazol-4-ylmethoxy)propoxymethyl]benzoic acid]"
22,710,"Cc1ccc(-c2nc(COCCCOCc3cccc(C)c3C(=O)O)c(C3CCCCC3)o2)cc1 [Example 22, 2-Methyl-6-{3-[5-cyclohexyl-2-p-tolyloxazol-4-ylmethoxy]propoxymethyl}benzoic acid]"
13,390,"COc1cccc(-c2nc(COCC(C)(C)COCc3cccc(C)c3C(=O)O)c(C)o2)c1 [Example 27, 2-{3-[2-(3-Methoxyphenyl)-5-methyloxazol-4-ylmethoxy]-2,2-dimethylpropoxymethyl}-6-methylbenzoic acid]"
11,40,"Cc1cccc(COCCCOCc2nc(-c3ccc(Oc4ccccc4)cc3)oc2C)c1C(=O)O [Example 8, 2-Methyl-6-{3-[5-methyl-2-(4-phenoxyphenyl)oxazol-4-ylmethoxy]propoxymethyl}-benzoic acid]"
3.7,91,CCc1oc(-c2cccc(OC)c2)nc1COCCCOCc1cccc(C)c1C(=O)O [Example 17]
1,> 10000,"Cc1cccc(COCCCOCc2coc(-c3ccccc3)n2)c1C(=O)O [*, reference compound]"

# From US7732471B2, “6-oxazol-4-ylmetholmethoxy-alko-alkoxymethyl substituted benzoic acid derivatives forming peroxisome proliferator—activated receptor (PPAR) ligands, process for their preparation and methods of use thereof” (Sanofi-Aventis, priority 2005, dated 2010)
